pIC50: −log10 of the molar value. The source made the active and inactive calls. The rule behind the calls is not given here.
Legend:
[1] = Antiproliferative against human PC9 cells expressing EGFR exon19 deletion mutant after 72 hrs by MTS assay; assay type: functional, cell-based; conditions: PC-9, 72 h
[2] = AUC(0 to 24 hrs) in beagle dog at 1 mg/kg, iv; assay type: ADME, organism-based, Canis lupus familiaris; set-up: dose 1 mg/kg, time < 24 hr, route intravenous; conditions: in vivo
[3] = tested on: Hepatocyte; test: Intrinsic clearance in human hepatocytes; assay type: ADME, cell-based
[4] = Elimination half life in beagle dog at 1 mg/kg, iv; assay type: ADME, organism-based, Canis lupus familiaris; conditions: in vivo, read-out: beta t1/2 (converted)
[5] = target: Vascular endothelial growth factor receptor 1 (Homo sapiens) (UniProt P17948); test: Inhibition of recombinant Flt (unknown origin) at 1 uM after 40 mins by scintillation counting analysis in presence of [gamma33P]-ATP
Sequence of Vascular endothelial growth factor receptor 1 (Homo sapiens) (P17948 whole entry): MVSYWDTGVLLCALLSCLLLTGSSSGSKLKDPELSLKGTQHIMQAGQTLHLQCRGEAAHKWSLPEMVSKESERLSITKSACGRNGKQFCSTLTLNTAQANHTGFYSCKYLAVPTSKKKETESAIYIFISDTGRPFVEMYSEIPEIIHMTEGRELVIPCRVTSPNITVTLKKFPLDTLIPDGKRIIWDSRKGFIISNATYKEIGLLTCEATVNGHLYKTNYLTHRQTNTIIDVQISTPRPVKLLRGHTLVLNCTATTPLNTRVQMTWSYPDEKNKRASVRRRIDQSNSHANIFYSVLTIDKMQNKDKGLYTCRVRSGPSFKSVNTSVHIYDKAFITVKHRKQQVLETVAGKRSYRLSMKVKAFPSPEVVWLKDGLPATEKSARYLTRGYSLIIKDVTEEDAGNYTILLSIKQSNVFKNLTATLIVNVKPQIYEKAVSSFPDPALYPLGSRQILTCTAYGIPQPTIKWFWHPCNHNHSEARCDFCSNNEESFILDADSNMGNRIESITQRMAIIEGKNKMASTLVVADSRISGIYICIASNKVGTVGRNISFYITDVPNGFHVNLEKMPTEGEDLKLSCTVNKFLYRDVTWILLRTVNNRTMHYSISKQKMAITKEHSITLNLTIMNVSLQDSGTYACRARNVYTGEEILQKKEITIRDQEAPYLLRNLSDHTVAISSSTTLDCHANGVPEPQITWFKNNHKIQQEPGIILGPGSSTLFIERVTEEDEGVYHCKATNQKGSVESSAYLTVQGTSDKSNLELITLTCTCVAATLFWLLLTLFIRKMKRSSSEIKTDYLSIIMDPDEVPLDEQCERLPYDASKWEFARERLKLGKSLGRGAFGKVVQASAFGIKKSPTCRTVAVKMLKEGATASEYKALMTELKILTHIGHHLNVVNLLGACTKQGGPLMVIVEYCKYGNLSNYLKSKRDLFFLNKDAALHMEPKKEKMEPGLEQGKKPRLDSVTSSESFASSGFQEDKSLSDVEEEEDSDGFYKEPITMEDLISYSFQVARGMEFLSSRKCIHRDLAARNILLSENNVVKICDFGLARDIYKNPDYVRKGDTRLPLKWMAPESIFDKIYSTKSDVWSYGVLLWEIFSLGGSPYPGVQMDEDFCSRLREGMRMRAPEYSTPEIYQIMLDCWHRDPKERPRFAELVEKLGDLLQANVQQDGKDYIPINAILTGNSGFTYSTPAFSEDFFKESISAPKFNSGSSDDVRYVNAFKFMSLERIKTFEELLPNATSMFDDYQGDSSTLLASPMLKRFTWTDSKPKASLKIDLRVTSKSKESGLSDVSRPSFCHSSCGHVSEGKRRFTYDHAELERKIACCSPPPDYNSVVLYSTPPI

[6] = target: T1, Vascular endothelial growth factor receptor 2 (Homo sapiens, UniProt P35968); test: Inhibition of recombinant KDR (unknown origin) after 40 mins by scintillation counting analysis in presence of [gamma33P]-ATP
T1 sequence (P35968 whole entry): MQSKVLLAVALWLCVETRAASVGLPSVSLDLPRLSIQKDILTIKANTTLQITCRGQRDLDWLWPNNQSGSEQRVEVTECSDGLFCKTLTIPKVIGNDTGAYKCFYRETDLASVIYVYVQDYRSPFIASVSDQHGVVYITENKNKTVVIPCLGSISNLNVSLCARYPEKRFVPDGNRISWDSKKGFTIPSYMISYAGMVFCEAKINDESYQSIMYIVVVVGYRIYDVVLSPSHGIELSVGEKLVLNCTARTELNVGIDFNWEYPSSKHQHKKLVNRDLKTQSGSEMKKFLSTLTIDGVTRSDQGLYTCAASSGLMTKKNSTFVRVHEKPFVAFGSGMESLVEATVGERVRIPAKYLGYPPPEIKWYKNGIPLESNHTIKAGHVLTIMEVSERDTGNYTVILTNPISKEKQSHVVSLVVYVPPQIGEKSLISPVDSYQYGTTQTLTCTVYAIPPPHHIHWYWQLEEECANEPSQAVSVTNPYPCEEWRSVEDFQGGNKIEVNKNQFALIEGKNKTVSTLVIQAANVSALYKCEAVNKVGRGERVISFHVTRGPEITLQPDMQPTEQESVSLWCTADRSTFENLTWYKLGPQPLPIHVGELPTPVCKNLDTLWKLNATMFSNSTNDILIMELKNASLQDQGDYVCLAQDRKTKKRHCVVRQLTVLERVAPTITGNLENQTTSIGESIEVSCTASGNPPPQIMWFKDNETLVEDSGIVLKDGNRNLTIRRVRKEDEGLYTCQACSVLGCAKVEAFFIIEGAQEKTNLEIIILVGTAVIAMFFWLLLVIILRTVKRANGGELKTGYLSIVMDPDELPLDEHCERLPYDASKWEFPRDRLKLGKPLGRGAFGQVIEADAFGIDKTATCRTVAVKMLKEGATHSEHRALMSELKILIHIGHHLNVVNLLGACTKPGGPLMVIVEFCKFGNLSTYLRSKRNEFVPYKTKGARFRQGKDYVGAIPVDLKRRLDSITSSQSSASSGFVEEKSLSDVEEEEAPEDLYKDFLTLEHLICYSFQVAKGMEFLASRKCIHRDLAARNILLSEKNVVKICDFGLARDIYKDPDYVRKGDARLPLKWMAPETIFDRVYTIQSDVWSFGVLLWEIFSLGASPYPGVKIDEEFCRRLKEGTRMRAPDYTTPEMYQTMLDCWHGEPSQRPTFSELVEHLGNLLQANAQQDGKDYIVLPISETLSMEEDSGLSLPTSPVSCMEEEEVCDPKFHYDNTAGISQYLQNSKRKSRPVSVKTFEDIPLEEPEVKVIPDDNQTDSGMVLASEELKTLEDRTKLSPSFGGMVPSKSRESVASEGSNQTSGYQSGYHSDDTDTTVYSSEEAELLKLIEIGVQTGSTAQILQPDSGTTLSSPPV

[7] = tested on: NCI-H838; test: Antiproliferative against human NCI-H838 cells expressing EGFR wild-type after 72 hrs by MTS assay; assay type: functional, cell-based; conditions: NCI-H838, 72 h
[8] = target: Tyrosine-protein kinase Lyn (Homo sapiens) (UniProt P07948); test: Inhibition of recombinant Lyn (unknown origin) at 1 uM after 40 mins by scintillation counting analysis in presence of [gamma33P]-ATP
Sequence of Tyrosine-protein kinase Lyn (Homo sapiens) (P07948 2-512 limits assumed): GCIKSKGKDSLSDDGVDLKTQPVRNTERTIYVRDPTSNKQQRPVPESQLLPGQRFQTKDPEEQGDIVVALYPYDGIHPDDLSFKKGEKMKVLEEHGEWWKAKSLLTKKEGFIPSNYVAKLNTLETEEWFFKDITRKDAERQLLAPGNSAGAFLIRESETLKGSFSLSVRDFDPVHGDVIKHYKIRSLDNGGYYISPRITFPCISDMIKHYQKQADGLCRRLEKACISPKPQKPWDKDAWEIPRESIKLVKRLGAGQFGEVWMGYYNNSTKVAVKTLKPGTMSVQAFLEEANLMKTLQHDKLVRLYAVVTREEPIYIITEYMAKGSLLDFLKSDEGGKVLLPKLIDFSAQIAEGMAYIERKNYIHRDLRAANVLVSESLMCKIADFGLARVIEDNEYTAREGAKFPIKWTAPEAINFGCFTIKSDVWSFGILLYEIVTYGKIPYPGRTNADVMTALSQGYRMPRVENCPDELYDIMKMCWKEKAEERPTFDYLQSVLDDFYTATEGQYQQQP

[9] = tested on: PC-9; test: Antitumor activity against human PC9 cells expressing EGFR exon19 deletion mutant xenografted in mouse assessed as tumor regression at 15 mg/kg, qd measured after 4 weeks; assay type: functional, organism-based
[10] = target: D(2) dopamine receptor (Homo sapiens, UniProt P14416); test: Inhibition of recombinant D2 receptor (unknown origin)
Sequence of D(2) dopamine receptor (P14416 whole entry): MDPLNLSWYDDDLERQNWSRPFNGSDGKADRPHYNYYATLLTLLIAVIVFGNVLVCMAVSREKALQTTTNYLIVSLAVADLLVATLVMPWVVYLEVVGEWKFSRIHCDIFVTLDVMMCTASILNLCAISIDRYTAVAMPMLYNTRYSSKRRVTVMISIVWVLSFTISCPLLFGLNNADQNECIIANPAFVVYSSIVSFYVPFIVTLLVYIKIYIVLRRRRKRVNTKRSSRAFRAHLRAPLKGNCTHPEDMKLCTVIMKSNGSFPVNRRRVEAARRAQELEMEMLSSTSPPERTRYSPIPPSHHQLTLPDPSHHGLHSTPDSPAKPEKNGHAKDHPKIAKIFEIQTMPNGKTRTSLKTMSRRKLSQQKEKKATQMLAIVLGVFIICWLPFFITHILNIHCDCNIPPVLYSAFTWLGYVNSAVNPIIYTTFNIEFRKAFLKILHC

[11] = Oral bioavailability in Han Wistar rat at 2 mg/kg; assay type: ADME, organism-based; conditions: Han Wistar, in vivo
[12] = target: Cytochrome P450 2C19 (Homo sapiens, UniProt P33261); test: Inhibition of CYP2C19 (unknown origin); assay type: ADME
[13] = Permeability from apical to basolateral side in MDCK2-MDR1 cells; assay type: ADME, cell-based, Canis lupus familiaris, MDCK-II; conditions: dog, MDCK-MDR1
[14] = Clearance in Han Wistar rat at 1 mg/kg, iv; assay type: ADME, organism-based; conditions: in vivo
[15] = Oral bioavailability in beagle dog at 2 mg/kg; assay type: ADME, organism-based, Canis lupus familiaris; conditions: in vivo
[16] = target: Cytochrome P450 2C8 (Homo sapiens, UniProt P10632); test: Inhibition of CYP2C8 (unknown origin); assay type: ADME
Sequence of Cytochrome P450 2C8 (P10632 whole entry): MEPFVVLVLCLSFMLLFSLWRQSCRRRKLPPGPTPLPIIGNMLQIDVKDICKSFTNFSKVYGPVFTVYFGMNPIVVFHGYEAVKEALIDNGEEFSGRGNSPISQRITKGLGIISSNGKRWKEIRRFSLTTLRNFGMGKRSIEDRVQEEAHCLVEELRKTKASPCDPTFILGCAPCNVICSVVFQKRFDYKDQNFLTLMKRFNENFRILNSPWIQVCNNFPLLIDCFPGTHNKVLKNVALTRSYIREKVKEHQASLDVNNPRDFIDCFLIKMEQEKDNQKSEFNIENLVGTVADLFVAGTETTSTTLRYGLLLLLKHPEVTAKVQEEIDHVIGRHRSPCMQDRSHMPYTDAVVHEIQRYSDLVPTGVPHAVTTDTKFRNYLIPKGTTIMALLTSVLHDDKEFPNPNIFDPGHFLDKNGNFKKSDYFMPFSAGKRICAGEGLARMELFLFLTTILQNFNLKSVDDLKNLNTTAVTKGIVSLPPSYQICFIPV

[17] = target: Cytochrome P450 2B6 (Homo sapiens, UniProt P20813); test: Inhibition of CYP2B6 (unknown origin); assay type: ADME
[18] = tested on: PC-9; test: Antitumor activity against human PC9 cells expressing EGFR exon19 deletion mutant xenografted in mouse measured after 4 weeks; assay type: functional, cell-based
[19] = target: T2, Proto-oncogene tyrosine-protein kinase Src (Homo sapiens, UniProt P12931); test: Inhibition of recombinant Src (unknown origin) at 1 uM after 40 mins by scintillation counting analysis in presence of [gamma33P]-ATP
T2 sequence (P12931 2-536 limits assumed): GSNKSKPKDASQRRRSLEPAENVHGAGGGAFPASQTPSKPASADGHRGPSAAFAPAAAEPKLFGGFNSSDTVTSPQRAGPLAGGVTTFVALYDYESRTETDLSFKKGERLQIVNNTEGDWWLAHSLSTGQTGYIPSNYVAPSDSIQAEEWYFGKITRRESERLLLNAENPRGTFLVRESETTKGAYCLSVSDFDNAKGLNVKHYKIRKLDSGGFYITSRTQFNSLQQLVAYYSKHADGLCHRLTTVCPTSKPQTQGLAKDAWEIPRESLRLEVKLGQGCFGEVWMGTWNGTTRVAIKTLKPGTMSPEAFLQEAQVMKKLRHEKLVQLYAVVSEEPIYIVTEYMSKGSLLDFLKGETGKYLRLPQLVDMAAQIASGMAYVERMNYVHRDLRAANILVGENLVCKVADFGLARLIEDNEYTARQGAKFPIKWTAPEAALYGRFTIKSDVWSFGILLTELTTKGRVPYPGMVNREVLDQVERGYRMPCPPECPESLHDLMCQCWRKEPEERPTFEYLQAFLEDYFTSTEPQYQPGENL

[20] = Elimination half life in Han Wistar rat at 1 mg/kg, iv; assay type: ADME, organism-based; conditions: Han Wistar, in vivo, read-out: beta t1/2 (converted)
[21] = Volume of distribution at steady state in beagle dog at 1 mg/kg, iv; assay type: ADME, organism-based, Canis lupus familiaris; conditions: in vivo, read-out: Vdss
[22] = Antiproliferative against human H3255 cells expressing EGFR L858R mutant after 72 hrs by MTS assay; assay type: functional, cell-based; conditions: NCI-H3255, 72 h
[23] = target: T2, Proto-oncogene tyrosine-protein kinase Src; test: Inhibition of recombinant Src (unknown origin) after 40 mins by scintillation counting analysis in presence of [gamma33P]-ATP
[24] = target: Cytochrome P450 2C9 (Homo sapiens, UniProt P11712); test: Inhibition of CYP2C9 (unknown origin); assay type: ADME
[25] = target: Cytochrome P450 2D6 (Homo sapiens, UniProt P10635); test: Inhibition of CYP2D6 (unknown origin); assay type: ADME
[26] = Cmax in Han Wistar rat at 2 mg/kg, po at 1 hr; assay type: ADME, organism-based; set-up: dose 2 mg/kg, route oral; conditions: in vivo
[27] = Tmax in beagle dog at 2 mg/kg, po; assay type: ADME, organism-based, Canis lupus familiaris; conditions: in vivo
[28] = Elimination half life in beagle dog at 2 mg/kg, po; assay type: ADME, organism-based, Canis lupus familiaris; conditions: in vivo, read-out: beta t1/2 (converted)
[29] = Fraction unbound in Han Wistar rat blood at 5 uM by equilibrium dialysis method; assay type: ADME, tissue-based; conditions: Han Wistar
[30] = tested on: PC-9; test: Antitumor activity against human PC9 cells expressing EGFR exon19 deletion mutant xenografted in mouse assessed as decrease in tumor area in brain at 7.5 mg/kg, qd; assay type: functional, organism-based
[31] = tested on: Mus musculus; test: Toxicity in PC9 cells expressing EGFR exon19 deletion mutant xenografted mouse assessed as loss of body weight at 15 mg/kg, qd; assay type: organism-based, PC-9; conditions: in vivo
[32] = Ratio of unbound AUC (0 to 7 hrs) in brain to blood of Han Wistar rat at 2 mg/kg, po by LC-MS/MS analysis; assay type: ADME, organism-based; conditions: Han Wistar, brain and blood, read-out: K(p,uu,brain)
[33] = tested on: PC-9; test: Antitumor activity against human PC9 cells expressing EGFR exon19 deletion mutant xenografted in mouse assessed as decrease in tumor area in brain at 15 mg/kg, qd; assay type: functional, organism-based
[34] = Elimination half life in Han Wistar rat at 2 mg/kg, po; assay type: ADME, organism-based; conditions: in vivo, read-out: beta t1/2 (converted)
[35] = target: Cytochrome P450 3A5 (Homo sapiens, UniProt P20815); test: Inhibition of CYP3A5 (unknown origin); assay type: ADME
[36] = Ratio of unbound AUC (0 to 7 hrs) in CSF to blood of Han Wistar rat at 2 mg/kg, po by LC-MS/MS analysis; assay type: ADME, organism-based; conditions: Han Wistar, CSF and blood
[37] = target: Tyrosine-protein kinase Yes (Homo sapiens) (UniProt P07947); test: Inhibition of recombinant Yes (unknown origin) at 1 uM after 40 mins by scintillation counting analysis in presence of [gamma33P]-ATP
[38] = Antitumor activity against human PC9 cells expressing EGFR exon19 deletion mutant xenografted in mouse assessed as tumor growth inhibition at 7.5 mg/kg, qd measured after 4 weeks; assay type: functional; conditions: PC-9, 672 h
[39] = Volume of distribution at steady state in Han Wistar rat at 1 mg/kg, iv; assay type: ADME, organism-based; conditions: Han Wistar, in vivo, read-out: Vdss
[40] = tested on: Mus musculus; test: Toxicity in PC9 cells expressing EGFR exon19 deletion mutant xenografted mouse assessed as loss of body weight at 7.5 mg/kg, qd; assay type: organism-based, PC-9; conditions: in vivo
[41] = AUC (0 to 7 hrs) in Han Wistar rat CSF at 2 mg/kg, po by LC-MS/MS analysis; assay type: ADME, organism-based, Cerebrospinal fluid; set-up: time < 7 hr, dose 2 mg/kg, route oral; conditions: Han Wistar, CSF
[42] = target: Ephrin type-B receptor 4 (Homo sapiens) (UniProt P54760); test: Inhibition of recombinant EpHB4 (unknown origin) at 1 uM after 40 mins by scintillation counting analysis in presence of [gamma33P]-ATP
[43] = target: Tyrosine-protein kinase Lck (Homo sapiens) (UniProt P06239); test: Inhibition of recombinant Lck (unknown origin) at 1 uM after 40 mins by scintillation counting analysis in presence of [gamma33P]-ATP
[44] = AUC(0 to 24 hrs) in beagle dog at 2 mg/kg, po; assay type: ADME, organism-based, Canis lupus familiaris; set-up: dose 2 mg/kg, time < 24 hr, route oral; conditions: in vivo
[45] = Ratio of fraction unbound in brain to plasma of cynomolgus monkey at 155 MBq, iv by positron emission tomography; assay type: ADME, organism-based, Macaca fascicularis
[46] = AUC(0 to 24 hrs) in Han Wistar rat at 2 mg/kg, po; assay type: ADME, organism-based; set-up: dose 2 mg/kg, time < 24 hr, route oral; conditions: Han Wistar, in vivo
[47] = Ratio of fraction unbound in brain to plasma of cynomolgus monkey at 150 MBq, iv by positron emission tomography; assay type: ADME, organism-based, Macaca fascicularis
[48] = Clearance in beagle dog at 1 mg/kg, iv; assay type: ADME, organism-based, Canis lupus familiaris; conditions: in vivo
[49] = AUC (0 to 7 hrs) in Han Wistar rat brain at 2 mg/kg, po by LC-MS/MS analysis; assay type: ADME, organism-based; set-up: dose 2 mg/kg, time < 7 hr, route oral; conditions: Han Wistar, brain
[50] = Cmax in beagle dog at 2 mg/kg, po; assay type: ADME, organism-based, Canis lupus familiaris; set-up: dose 2 mg/kg, route oral; conditions: in vivo
[51] = AUC (0 to 7 hrs) in Han Wistar rat blood at 2 mg/kg, po by LC-MS/MS analysis; assay type: ADME, organism-based; set-up: dose 2 mg/kg, time < 7 hr, route oral; conditions: Han Wistar, blood
[52] = Fraction unbound in Han Wistar rat brain at 5 uM by equilibrium dialysis method; assay type: ADME, tissue-based; conditions: Han Wistar, brain
[53] = target: Tyrosine-protein kinase Fyn (Homo sapiens) (UniProt P06241); test: Inhibition of recombinant Fyn (unknown origin) at 1 uM after 40 mins by scintillation counting analysis in presence of [gamma33P]-ATP
[54] = tested on: PC-9; test: Antitumor activity against human PC9 cells expressing EGFR exon19 deletion mutant xenografted in mouse assessed as modulation of pEGFR expression in brain at 15 mg/kg administered as single dose measured after 1 hr by immunohistochemical analysis; assay type: functional, organism-based
[55] = target: Cytochrome P450 3A4 (Homo sapiens, UniProt P08684); test: Inhibition of CYP3A4 (unknown origin); assay type: ADME
[56] = target: Cytochrome P450 1A2 (Homo sapiens, UniProt P05177); test: Inhibition of CYP1A2 (unknown origin); assay type: ADME
[57] = target: T1, Vascular endothelial growth factor receptor 2; test: Inhibition of recombinant KDR (unknown origin) at 1 uM after 40 mins by scintillation counting analysis in presence of [gamma33P]-ATP

**Q.** What does the source list for `COc1cc2ncnc(Nc3cccc(Cl)c3F)c2cc1OC(=O)N1CCN(C)C[C@H]1C` [AZD-3759]?
**A.** pIC50 [1]: 8.11; AUC(0-t) at 24 h [2]: 2.56 µM·h; CLH [3]: 11.4 µL/min; half-life [4]: 6.2 h; inhibition [5]: 57%; pIC50 [6]: 6.81; pIC50 [7]: 4.67; inhibition [8]: 74%; Activity [9]: Active; pIC50 [10]: 6.10; bioavailability [11]: 91%; pIC50 [12]: < 4.30; Papp A→B [13]: 36 ×10⁻⁶ cm/s; clearance [14]: 17 mL/min/kg; bioavailability [15]: 90.2%; pIC50 [16]: < 4.30; pIC50 [17]: < 4.30; Activity [18]: Dose-dependent effect; inhibition [19]: 69%; half-life [20]: 4.1 h; Vd [21]: 6.4 L/kg; pIC50 [22]: 8.15; pIC50 [23]: 6.21; pIC50 [24]: < 4.30; pIC50 [25]: < 4.30; Cmax [26]: 580 nM; Tmax [27]: 0.5 h; half-life [28]: 5.5 h; fraction unbound at 5 µM [29]: 0.047; inhibition [30]: Active; Activity [31]: < 20%; Kp uu [32]: 1.3; inhibition [33]: Active; half-life [34]: 4.3 h; pIC50 [35]: < 4.30; Kp uu [36]: 1.3; inhibition [37]: 87%; inhibition in vivo at 7.5 mg/kg [38]: 78%; Vd [39]: 5.2 L/kg; Activity [40]: < 20%; AUC(0-t) at 7 h [41]: 0.076 µM·h; inhibition [42]: 83%; inhibition [43]: 61%; AUC(0-t) at 24 h [44]: 4.62 µM·h; BPR [45]: 0.53; AUC(0-t) at 24 h [46]: 3.8 µM·h; BPR [47]: 0.5; clearance [48]: 14 mL/min/kg; AUC(0-t) at 7 h [49]: 3.69 µM·h; Cmax [50]: 698 nM; AUC(0-t) at 7 h [51]: 1.23 µM·h; fraction unbound at 5 µM [52]: 0.02; inhibition [53]: 58%; Activity [54]: Active; pIC50 [55]: < 4.30; pIC50 [56]: < 4.30; inhibition [57]: 62%

From ChEMBL document CHEMBL3621142, “Discovery and Evaluation of Clinical Candidate AZD3759, a Potent, Oral Active, Central Nervous System-Penetrant, Epidermal Growth Factor Receptor Tyrosine Kinase Inhibitor” (J Med Chem, 2015)
